# Test results taken from patent US6689789B2, “Compounds useful for inhibition of farnesyl protein transferase” (Schering Corporation, priority 1997, dated 2004).
# pIC50: −log10 of the molar value.
# Target: farnesyl protein transferase (Homo sapiens, UniProt P49356)
# Experiment: FPT IC50, inhibition of farnesyl protein transferase, in vitro enzyme assay
# Format: biochemical
# Conditions: procedure of WO 95/10516
# Description: FPT IC50 (inhibition of farnesyl protein transferase, in vitro enzyme assay) and COS Cell IC50 (Cell-Based Assay) were determined following the assay procedures described in WO 95/10516, published Apr. 20, 1995. GGPT IC50 (inhibition of geranylgeranyl protein transferase, in vitro enzyme assay), Cell Mat Assay, and anti-tumor activity (in vivo anti-tumor studies) could be determined by the assay procedures described in WO 95/10516. The disclosure of WO 95/10516 is incorporated herein by reference thereto.
row,pIC50,SMILES
1,> 8.70,"O=C(Cc1cc[n+]([O-])cc1)N1CCC(C2(O)c3ncc(Br)cc3CCc3cc(Cl)cc(Br)c32)CC1 (centres unmarked) [Example #1 Step C, 4-(3,10-dibromo-8-chloro-6,11-dihydro-11-hydroxy-5H-benzo[5,6]cyclohepta[1,2-b]pyridin-11-yl)-1-(4-pyridinylacetyl)piperidine N1-oxide]"
2,7.38,"CC(C)(C)OC(=O)N1CCC(CC(=O)N2CCC(C3(O)c4ncc(Br)cc4CCc4cc(Cl)cc(Br)c43)CC2)CC1 (centres unmarked) [Example #2 Step A, 4-(3,10-dibromo-8-chloro-6,11-dihydro-11-hydroxy-5H-benzo[5,6]cyclohepta[1,2-b]pyridin-11-yl)-1-(N-BOC-4-piperdinylacetyl)piperidine]"
3,7.90,"O=C(CC1CCNCC1)N1CCC(C2(O)c3ncc(Br)cc3CCc3cc(Cl)cc(Br)c32)CC1 (centres unmarked) [Example #2 Step B, 4-[2-[4-(3,10-dibromo-8-chloro-6,11-dihydro-11-hydroxy-5H-benzo[5,6]-cyclohepta[1,2-b]pyridin-11-yl)-1-piperdinyl]-2-oxoethyl]-1-piperidine]"
4,7.97,"NC(=O)N1CCC(CC(=O)N2CCC(C3(O)c4ncc(Br)cc4CCc4cc(Cl)cc(Br)c43)CC2)CC1 (centres unmarked) [Example #2 Step C, 4-[2-[4-(3,10-dibromo-8-chloro-6,11-dihydro-11-hydroxy-5H-benzo[5,6]cyclohepta[1,2-b]pyridin-11-yl)-1-piperdinyl]-2-oxoethyl]-1-piperidinecarboxamide]"
5,8.06,"NC(=O)CN1CCC(CC(=O)N2CCC(C3(O)c4ncc(Br)cc4CCc4cc(Cl)cc(Br)c43)CC2)CC1 (centres unmarked) [compound 3, 4-[2-[4-(3,10-dibromo-8-chloro-6,11-dihydro-11-hydroxy-5H-benzo[5,6]cyclohepta-[1,2-B]pyridin-11-yl)-1-piperidinyl]-2-oxoethyl]-1-piperidineacetamide]"
